This note sets out measurements from PMC10009755, “Discovery and Characterization of BAY-805, a Potent and Selective Inhibitor of Ubiquitin-Specific Protease USP21” (Journal of Medicinal Chemistry, 2023).

One series can be described thus: Aqueous solubility. The following applies: PBS pH 6.5, pH 6.5, PBS pH 6.5. Format: physicochemical. As for the experimental part: Test compounds were applied as DMSO solutions or directly from powder. After the addition of the buffer, solutions were shaken at rt for 24 h. The undissolved material was removed by filtration or centrifugation. The compound dissolved in the supernatant was quantified by HPLC-UV or HPLC-MS/MS.

Another series is described as follows: log D measurement (HPLC). Format: physicochemical. The following applies: for chromatographic logD: reverse-phase HPLC, pH 7.5, pH 7.5, HPLC method, read-out: logD7.5; for logD7.5: pH 7.5, HPLC method. As for the experimental part: log D values at pH 7.5 were recorded using an indirect method for determining hydrophobicity constants by reverse-phase HPLC. A series of compounds with well-known log D values were used for calibration. Test compounds were injected into the same HPLC system. The lipophilicity of compounds was then assessed by comparison to the calibration curve.

Series [1] addresses T1, USP21 (Homo sapiens, UniProt Q9UK80).
T1 sequence (Q9UK80 1-565): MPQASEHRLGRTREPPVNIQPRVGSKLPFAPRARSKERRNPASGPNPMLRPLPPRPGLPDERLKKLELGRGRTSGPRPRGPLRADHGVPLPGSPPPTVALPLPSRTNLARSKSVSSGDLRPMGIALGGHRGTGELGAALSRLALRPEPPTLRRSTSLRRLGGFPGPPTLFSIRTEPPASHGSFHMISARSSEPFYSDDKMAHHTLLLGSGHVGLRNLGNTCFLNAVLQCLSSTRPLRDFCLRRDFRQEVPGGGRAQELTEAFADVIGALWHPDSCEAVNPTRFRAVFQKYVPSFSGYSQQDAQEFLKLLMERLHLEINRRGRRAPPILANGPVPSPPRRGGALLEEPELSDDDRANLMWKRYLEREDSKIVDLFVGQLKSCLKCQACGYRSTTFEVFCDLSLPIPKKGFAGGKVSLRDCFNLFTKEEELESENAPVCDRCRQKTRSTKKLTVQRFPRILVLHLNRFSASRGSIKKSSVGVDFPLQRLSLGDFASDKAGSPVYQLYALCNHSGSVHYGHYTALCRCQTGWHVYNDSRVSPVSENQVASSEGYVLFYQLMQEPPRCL
Protocol: The final assay volume was 6 μL. […] First, 2 μL of 1 nM USP21 (or selectivity enzyme) solution was added to the compound plate and preincubated for 15–20 min at room temperature. […] The reaction was stopped by 50 mM citric acid in 25 mM HEPES, pH 7.5, containing 0.01% BSA. […] The USP21 and USP22 were measured with five flashes and USP2 and USP7 in fly mode.

Series [2] has as its target T1, USP21. This is another data set of the same source.
Protocol: To this end, we developed a USP21 activity assay that is based on the deubiquitination of a STING-derived peptide (a USP21-specific substrate[17],[18]) by purified recombinant human full-length USP21 using time-resolved fluorescence resonance energy transfer (TR-FRET) technology (referred to as a homogeneous time-resolved fluorescence (HTRF)-assay, for details see the Supporting Information).[39]
All substrate and enzyme solutions were diluted in an assay buffer. […] Incubation time was 15–20 min at room temperature. […] The stop solution (DUB inhibitor PR619, Abcam) was prepared in 25 mM HEPES, pH 7.5 (Alfa Aesar) containing 0.01% BSA and then left for 10 min at room temperature before filtering with a 0.2 μM PES Membrane (Thermo Fisher). The reaction was stopped with the addition of 2 μL of 200 μM PR619. […] The plates were measured on the ViewLux in screening or PHERAstar FSX in compound profiling. […] The number of flashes per well was set to 3. All of the experimental data were plotted using Genedata analysis. The Z′-factor and S/B of the assay were >0.7 and ∼2, respectively.
A further series concerns the target T2, USP2 (Homo sapiens, UniProt O75604).
T2 construct: His tag
T2 sequence (O75604 259-605): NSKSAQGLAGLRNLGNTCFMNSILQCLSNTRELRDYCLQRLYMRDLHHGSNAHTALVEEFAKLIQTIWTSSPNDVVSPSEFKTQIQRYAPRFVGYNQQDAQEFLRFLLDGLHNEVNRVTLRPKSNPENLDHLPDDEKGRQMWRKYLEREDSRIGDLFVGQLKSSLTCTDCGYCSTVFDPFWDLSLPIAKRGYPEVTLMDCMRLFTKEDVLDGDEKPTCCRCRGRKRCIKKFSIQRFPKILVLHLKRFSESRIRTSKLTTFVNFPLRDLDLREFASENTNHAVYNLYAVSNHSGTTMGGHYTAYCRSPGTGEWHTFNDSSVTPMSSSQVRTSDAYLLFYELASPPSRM
Kind of series: hUSP2 Ub-rhodamine 110 assay. It is filed as biochemical. The following applies: for IC50: arithmetic means of multiple measurements, read-out: IC50 hUSP2 Ub-Rhod. As for the experimental part:
The final assay volume was 6 μL.

A short description of a further series: in vitro. It is filed as in vitro ADME. The following applies: human, Caco-2, pH 7.2. Here is the method: Caco-2 cells [purchased from the German Collection of Microorganisms and Cell Cultures (DSMZ)] were seeded at a density of 4.5 × 10^4 cells/well on 24-well insert plates [0.4 μm pore size, 0.3 cm^2 (Costar)] and grown for 13–15 days in DMEM medium supplemented with 10% fetal calf serum (FCS), 1% GlutaMAX (100×, Gibco), 100 U/mL penicillin, 100 μg/mL streptomycin (Gibco), and 1% nonessential amino acids (100×, Thermo Fischer Scientific). […] The medium was changed every 2–3 days.
The bidirectional transport assay for the evaluation of Caco-2 permeability was undertaken in 24-well insert plates using a robotic system (Tecan). Before the assay was run, the culture medium was replaced by a transport medium (FCS-free HEPES carbonate transport buffer pH 7.2). For the assessment of monolayer integrity, the transepithelial electrical resistance (TEER) was measured. Only monolayers with a TEER of at least 400 Ω·cm^2 were used. Test compounds were pre-dissolved in DMSO and added either to the apical or basolateral compartment at a final concentration of 2 μM. The evaluation was performed in triplicate. […] The efflux ratio (ER) basolateral (B) to apical (A) was calculated by dividing Papp B–A by Papp A–B.

The next series has as its system NF-κB activation. Briefly: NF-κB reporter assay. Particulars: HEK293T cells, up to 10 μM. It is filed as cell-based. As for the experimental part:
Yang and colleagues reported that USP21 inhibition induces NF-κB activation by preventing deubiquitination of RIP1.[15] K63 ubiquitinated RIP1 is required for NF-κB activation, and thus USP21-mediated deubiquitination of RIP1 shuts down the NF-κB pathway.
Four hours after replating, cells were treated with compounds or DMSO (note: DMSO concentrations were kept consistent across all cells). Promega Dual-Luciferase Reporter Assay kit was then used to prepare samples for Firefly and Renilla signal measurement on a CLARIOstar microplate reader (BMG) 20 h after compound treatment. Relative luciferase units were calculated by normalizing the Firefly signal to the background Renilla signal, followed by normalization to DMSO controls of wild-type USP21.

Series [3] concerns the target T3, C-terminal HiBiT-tagged USP21 (Homo sapiens, UniProt Q9UK80).
T3 construct: expressed in transfected cells; host or cells: HEK293T
T3 sequence (Q9UK80 1-565): T1 sequence (Q9UK80 1-565)
Briefly: USP21 HiBiT CETSA. The following applies: 49 °C, HEK293T cells. Format: cell-based. Here is the method:
In particular, we utilized a HiBiT CETSA assay format[42],[43] conducted in intact HEK293T cells. Cells were transfected with USP21 fused to a small proluminescent NanoLuc HiBiT tag, which, when complemented with the Large BiT NanoLuc fragment, produces a quantifiable luminescence signal.
HEK293T cells were seeded in a six-well plate at 8 × 10^5 cells/well in 2 mL of DMEM supplemented with 10% FBS, penicillin (100 U/mL), and streptomycin (100 μg/mL) and transfected 4 h after seeding using an X-tremeGENE HP transfection reagent, following the manufacturer’s instructions with a total of 2 μg of plasmid constructs (C-terminally tagged USP21 HiBiT and empty pCDNA3.1 vector). […] The breathable paper adhesive film was then replaced with a PCR adhesive film, and cells were heated at indicated temperatures in an Applied Biosystems VeritiPro thermal cycler for 3 min, followed by 3 min incubation at rt before the addition of LgBiT solution (200 nM LgBiT, 2% NP-40, protease inhibitors (Roche cOmplete, ethylenediaminetetraacetic acid (EDTA)-free Protease Inhibitor) in OptiMEM no phenol red (Gibco)) to lyse cells.

In brackets after ≈: the same amount, converted by molar mass. Read-outs that look alike come from different tables or passages of the source.

`COC[C@@H](NC(=O)C1(C)CCCCC1)C(=O)Nc1nc(C)c(Cc2ccc(C#N)cc2)s1` [Compound 12, COC[C@@H](NC(=O)C1(C)CCCCC1)C(=O)Nc2nc(C)c(Cc3ccc(cc3)C#N)s2]: the solubility at 24 h in “Aqueous solubility” came to 19.4 µM (≈ 8.83 µg/mL).

For `COCC(NC(=O)C1CCCC1)C(=O)Nc1nnc(Cc2ccc([N+](=O)[O-])cc2)s1` (centres unmarked) [Compound 4, COCC(NC(=O)C1CCCC1)C(=O)Nc2nnc(Cc3ccc(cc3)[N+](=O)[O-])s2], in the series “log D measurement (HPLC)”, the chromatographic logD came out at 2.4.

With `COC[C@@H](NC(=O)C1(C)CCCCC1)C(=O)Nc1sc(Cc2ccc(C#N)cc2)nc1C` [Compound 13, COC[C@@H](NC(=O)C1(C)CCCCC1)C(=O)Nc2sc(Cc3ccc(cc3)C#N)nc2C], the IC50 was over 25 µM on USP21 [1] and 0.065 µM at USP21 [2].

Regarding `COCC(NC(=O)c1ccccc1)C(=O)Nc1nnc(Cc2ccc([N+](=O)[O-])cc2)s1` (centres unmarked) [Compound 5, COCC(NC(=O)c1ccccc1)C(=O)Nc2nnc(Cc3ccc(cc3)[N+](=O)[O-])s2], the chromatographic logD in the series “log D measurement (HPLC)” stood at 2.3. Further, the IC50 is over 25 µM at USP2, over 20.2 µM at USP21 [1] and 11.8 µM on USP21 [2].

As for `COC[C@@H](NC(=O)C1(C)CCCCC1)C(=O)Nc1nnc(Cc2ccc([N+](=O)[O-])cc2)s1` [Compound 10, COC[C@@H](NC(=O)C1(C)CCCCC1)C(=O)Nc2nnc(Cc3ccc(cc3)[N+](=O)[O-])s2], the IC50 on USP2 was over 25 µM; at USP21 [2] it was 0.074 µM.

In the case of `COCC(NC(=O)C1(C)CCCCC1)C(=O)Nc1nnc(Cc2ccc([N+](=O)[O-])cc2)s1` (centres unmarked) [Compound 9, COCC(NC(=O)C1(C)CCCCC1)C(=O)Nc2nnc(Cc3ccc(cc3)[N+](=O)[O-])s2], in “log D measurement (HPLC)”, the chromatographic logD came to 2.9. Moreover, the IC50 at USP2 is over 25 µM.

Take `COC[C@@H](NC(=O)C1(OC)CCCCC1)C(=O)Nc1nnc(Cc2ccc(C#N)cc2)s1` [Compound 15, COC[C@@H](NC(=O)C1(CCCCC1)OC)C(=O)Nc2nnc(Cc3ccc(cc3)C#N)s2]: the chromatographic logD in the series “log D measurement (HPLC)” came to 2.59. Besides, the IC50 is over 25 µM on USP21 [1] and 21.5 µM against USP21 [2]. For the same molecule, the concentration in solution in “Aqueous solubility” (solubility at 24 h) came to 181 µM (≈ 82.9 µg/mL).

Take `COCC(NC(=O)C(C)C)C(=O)Nc1nnc(Cc2ccc([N+](=O)[O-])cc2)s1` (centres unmarked) [Compound 6, COCC(NC(=O)C(C)C)C(=O)Nc1nnc(Cc2ccc(cc2)[N+](=O)[O-])s1]: the chromatographic logD in “log D measurement (HPLC)” was determined as 2. Further, the half-inhibitory concentration (IC50) at USP2, on USP21 [1] and at USP21 [2] was over 25 µM each time.

For `COCC(NC(=O)C1CCOCC1)C(=O)Nc1nnc(Cc2ccc([N+](=O)[O-])cc2)s1` (centres unmarked) [Compound 8, COCC(NC(=O)C1CCOCC1)C(=O)Nc2nnc(Cc3ccc(cc3)[N+](=O)[O-])s2], the chromatographic logD in “log D measurement (HPLC)” turned out to be 1.8. Besides, the IC50 at USP2, against USP21 [1] and against USP21 [2] was over 25 µM each time.

Regarding `COC[C@@H](NC(=O)C1(C(F)(F)F)CCCCC1)C(=O)Nc1nnc(Cc2ccc(C#N)cc2)s1` [Compound 17, COC[C@@H](NC(=O)C1(CCCCC1)C(F)(F)F)C(=O)Nc2nnc(Cc3ccc(cc3)C#N)s2], the Papp A→B at 2 h, 2 µM in “in vitro” (2 μM, 2 h) came to 8.2 ×10⁻⁶ cm/s. The efflux ratio at 2 h, 2 µM in the series “in vitro” (Papp B–A / Papp A–B, read-out: Caco-2 efflux ratio (ER)) came out at 1.5. In “log D measurement (HPLC)”, the logD7.5 was 3.0 and the chromatographic logD is 2.95. The molecule further showed a solubility at 24 h in the series “Aqueous solubility” of 10.4 µM (≈ 5.17 µg/mL).

As for `COC[C@@H](NC(=O)C1(C(F)F)CCCCC1)C(=O)Nc1nnc(Cc2ccc(C#N)cc2)s1` [Compound 16, COC[C@@H](NC(=O)C1(CCCCC1)C(F)F)C(=O)Nc2nnc(Cc3ccc(cc3)C#N)s2], in “log D measurement (HPLC)”, the chromatographic logD amounted to 2.68. Also, in the series “Aqueous solubility”, the solubility at 24 h was determined as 131 µM (≈ 62.5 µg/mL).

On to `COCC(NC(=O)C1CCCCC1)C(=O)Nc1nnc(Cc2ccc([N+](=O)[O-])cc2)s1` (centres unmarked) [Compound 7, COCC(NC(=O)C1CCCCC1)C(=O)Nc2nnc(Cc3ccc(cc3)[N+](=O)[O-])s2], for which the chromatographic logD in the series “log D measurement (HPLC)” stood at 2.6. At USP2, the IC50 was over 25 µM.

In the case of `CC(C)(O)[C@@H](NC(=O)C1(C(F)(F)F)CCCCC1)C(=O)Nc1nnc(Cc2ccc(C#N)cc2)s1` [Compound 19, CC(C)(O)[C@@H](NC(=O)C1(CCCCC1)C(F)(F)F)C(=O)Nc2nnc(Cc3ccc(cc3)C#N)s2], the chromatographic logD in the series “log D measurement (HPLC)” is 2.9. The solubility at 24 h in “Aqueous solubility” was determined as 80.2 µM (≈ 40.9 µg/mL).

As for `COC[C@@H](NC(=O)C1(C)CCCCC1)C(=O)Nc1nnc(Cc2ccc(C#N)cc2)s1` [Compound 11, COC[C@@H](NC(=O)C1(C)CCCCC1)C(=O)Nc2nnc(Cc3ccc(cc3)C#N)s2], in “log D measurement (HPLC)”, the logD7.5 came out at 2.69 and the chromatographic logD was 2.7. At USP2, the IC50 was over 25 µM. For the same molecule, the “selectivity against USP2” value at USP2 (vs USP21) is over 780 fold. For the same molecule, in the series “Aqueous solubility”, the concentration in solution (solubility at 24 h) was 126 µM (≈ 55.8 µg/mL). The “NF-κB activation (in words)” value in the series on NF-κB activation is “no NF-κB activation up to a concentration of 10 μM”. The “cellular thermal stabilization of USP21 (in words)” value in series [3] is “strong stabilization of USP21”.

Regarding `CCC1(C(=O)N[C@H](COC)C(=O)Nc2nnc(Cc3ccc(C#N)cc3)s2)CCCCC1` [Compound 14, CCC1(CCCCC1)C(=O)N[C@H](COC)C(=O)Nc2nnc(Cc3ccc(cc3)C#N)s2], the chromatographic logD in “log D measurement (HPLC)” amounted to 2.95. Further, in “Aqueous solubility”, the concentration in solution (solubility at 24 h) came to 71 µM (≈ 32.4 µg/mL).
